Columns and labels:
Experiment in all cases: relative viability (nuclei count vs DMSO), 5 days (fraction); higher = more cells survive
BI-D1870 + Navitoclax = compound: CC(C)CCN1c2nc(Nc3cc(F)c(O)c(F)c3)ncc2N(C)C(=O)C1C [BI-D1870] + CC1(C)CCC(c2ccc(Cl)cc2)=C(CN2CCN(c3ccc(C(=O)NS(=O)(=O)c4ccc(N[C@H](CCN5CCOCC5)CSc5ccccc5)c(S(=O)(=O)C(F)(F)F)c4)cc3)CC2)C1 [Navitoclax] (partner 0.5 µM)
Method in brief: (§1)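 Relative viability equals treated-well nuclei counts divided by vehicle-well nuclei counts. Counts came from 4× images of lung cancer cell lines grown in 1536-well plates for 5 days after pin-tool dosing on the day after seeding. Dosing used one drug alone or a fixed anchor-drug dose plus five library-drug doses (not always all listed) in √10 steps, and values are medians of duplicate plates.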

BI-D1870 + Lapatinib = compound: CC(C)CCN1c2nc(Nc3cc(F)c(O)c(F)c3)ncc2N(C)C(=O)C1C [BI-D1870] + CS(=O)(=O)CCNCc1ccc(-c2ccc3ncnc(Nc4ccc(OCc5cccc(F)c5)c(Cl)c4)c3c2)o1 [Lapatinib] (partner 2 µM)
Method in brief: as §1

Zebularine + Luminespib = compound: O=c1ncccn1[C@@H]1O[C@H](CO)[C@@H](O)[C@H]1O [Zebularine] + CCNC(=O)c1noc(-c2cc(C(C)C)c(O)cc2O)c1-c1ccc(CN2CCOCC2)cc1 [Luminespib] (partner 0.01 µM)
Method in brief: as §1

Zebularine + Dasatinib = compound: O=c1ncccn1[C@@H]1O[C@H](CO)[C@@H](O)[C@H]1O [Zebularine] + Cc1nc(Nc2ncc(C(=O)Nc3c(C)cccc3Cl)s2)cc(N2CCN(CCO)CC2)n1 [Dasatinib] (partner 0.075 µM)
Method in brief: as §1

Cell Line | relative viability (BI-D1870 + Navitoclax; first compound 0.04 µM) | relative viability (BI-D1870 + Navitoclax; first compound 0.1265 µM) | relative viability (BI-D1870 + Navitoclax; first compound 0.4 µM) | relative viability (BI-D1870 + Navitoclax; first compound 1.265 µM) | relative viability (BI-D1870 + Navitoclax; first compound 4 µM) | relative viability (BI-D1870 + Lapatinib; first compound 0.04 µM) | relative viability (BI-D1870 + Lapatinib; first compound 0.1265 µM) | relative viability (BI-D1870 + Lapatinib; first compound 0.4 µM) | relative viability (BI-D1870 + Lapatinib; first compound 1.265 µM) | relative viability (BI-D1870 + Lapatinib; first compound 4 µM) | relative viability (Zebularine + Luminespib; first compound 1 µM) | relative viability (Zebularine + Luminespib; first compound 3.162 µM) | relative viability (Zebularine + Luminespib; first compound 10 µM) | relative viability (Zebularine + Luminespib; first compound 31.62 µM) | relative viability (Zebularine + Luminespib; first compound 100 µM) | relative viability (Zebularine + Dasatinib; first compound 1 µM) | relative viability (Zebularine + Dasatinib; first compound 3.162 µM) | relative viability (Zebularine + Dasatinib; first compound 10 µM) | relative viability (Zebularine + Dasatinib; first compound 31.62 µM) | relative viability (Zebularine + Dasatinib; first compound 100 µM)
CAL-12T | 1.35 | 1.03 | 1.19 | 1.07 | 1.08 | 0.799 | 0.672 | 0.664 | 1.03 | 0.539 | 0.49 | 0.717 | 0.244 | 0.355 | 0.582 | 0.462 | 0.623 | 0.238 | 0.451 | 0.414
EKVX | 1.01 | 0.909 | 0.889 | 1 | 0.922 | 0.236 | 0.18 | 0.195 | 0.223 | 0.2 | 0.863 | 0.847 | 0.867 | 0.807 | 0.653 | 0.577 | 0.498 | – | 0.575 | 0.573
NCI-H1651 | 1.15 | 0.946 | 0.935 | 1.08 | 0.778 | 0.828 | 0.666 | 0.769 | 0.892 | 0.647 | 0.986 | 0.831 | 0.688 | 0.738 | 0.519 | 0.399 | 0.359 | 0.343 | 0.53 | 0.247
NCI-H1944 | 1.01 | 1.02 | 0.988 | 1.09 | 1.06 | 0.932 | 0.669 | 0.659 | 0.835 | 0.768 | 0.837 | 0.707 | 0.718 | 0.711 | 0.533 | 0.202 | 0.199 | 0.221 | 0.215 | 0.193
SW 1573 | 0.93 | 0.81 | 1.13 | 0.852 | 0.602 | 1.13 | 1.16 | 1.11 | 1.25 | 1.14 | 0.181 | 0.34 | 0.173 | 0.41 | 0.285 | 0.555 | 0.523 | – | 0.548 | 0.475
A-427 | 1.1 | 0.958 | 0.922 | 0.997 | 0.999 | 1.05 | 0.981 | 0.957 | 1.21 | 1.09 | 1.01 | 0.856 | 0.53 | 0.383 | 0.261 | 0.841 | 0.664 | 0.434 | 0.535 | 0.2
NCI-H2347 | 0.778 | 0.914 | 0.617 | 0.975 | 0.54 | 1.12 | 0.977 | 0.745 | 0.921 | 1.03 | 0.504 | 0.418 | 0.293 | 0.213 | 0.28 | 0.309 | 0.322 | 0.302 | 0.227 | 0.254
NCI-H1355 | 0.959 | 0.959 | 0.988 | 1.05 | 1.03 | 0.955 | 0.959 | 0.907 | 1.21 | 0.809 | 0.93 | 0.654 | 0.595 | 0.452 | 0.29 | 0.757 | 0.746 | 0.525 | 0.617 | 0.458

— the supplement of paper PMC10307832
